From US20260226029A1, “1-(1-Oxo-1,2-Dihydrophthalazin-6-yl)Cycloalkyl-1-Carboxamide Derivatives as MTA-Cooperative Inhibitors of PRMT5” (BeOne Medicines I GmbH, priority 2023, published 2026)

How the values were obtained:
[1] = tested on: HCT116-MTAP-KO; assay: Compounds cell killing in HCT116 isogenic pair (CellTiter-Glo, 6 days), MTAP-KO cells; format: cell-based; conditions: Homo sapiens, HCT-116, 144 h, Cell Titer-Glo, 0-10 μM
Description: (§1) HCT116 cell line (ATCC, CCL-247) was isolated from the colon of an adult with colon cancer. It has a mutation in codon 13 of the ras proto-oncogene and can be used as a positive control for PCR assays of mutation in this codon. HCT116-MTAP-KO was knocked-out-MTAP-gene based HCT116, and a single clone was passed for this assay. HCT116-mock-RNA-KO was knocked-out-mock-gene based HCT116 with MTAP wildtype genotype. The base medium for HCT116 isogenic pair is RPMI 1640, HEPES (Gibco, 22400105). To make the complete growth medium, add the following components to the base medium: fetal bovine serum to a final concentration of 10% (Gibco, 10099-141C). The cell line was grown in a humidified 5% CO2 atmosphere at 37° C. and regularly tested for the presence of mycoplasma with MycoAlert™ PLUS Mycoplasma Detection Kit (Lonza, LT07-710).
(§2) • Seed HCT116-mock-RNA-KO (4E2/well) or HCT116-MTAP-KO (4E2/well) cells into a 96-well plate (Greiner: 655090), 100 µL/well. • Incubate at 37° C., 5% CO2, overnight. • Add 50 μL fresh growth-medium containing serial dilution of compounds for a final compound concentration of 0-10 μM to each well. • Incubate at 37° C., 5% CO2, 6 days. • The cell viability detected by Cell Titer-Glo (Promega, G7573). Add 70 μL of CellTiter-Glo® reagent in each well. • Incubate at room temperature for 10 minutes to stabilize luminescent signal. • Analyze with Microplate Reader (TECAN, SPARK) and fit IC50 using Prism® 9.

[2] = tested on: HCT116-mock-RNA-KO; assay: Compounds cell killing in HCT116 isogenic pair (CellTiter-Glo, 6 days), mock-KO (MTAP wildtype) cells; format: cell-based; conditions: Homo sapiens, HCT-116, 144 h, Cell Titer-Glo, 0-10 μM
Description: as §1, §2

Row | SMILES | IC50 [1] [nM] | IC50 [2] [nM]
1 | NCc1n[nH]c(=O)c2ccc(C3(C(=O)N(Cc4ccc(C(F)(F)F)cn4)C4CCCc5c(C6CC6)ccnc54)CC3)cc12 (stereo not drawn) [Example 32, 1-(4-(aminomethyl)-1-oxo-1,2-dihydrophthalazin-6-yl)-N-(4-cyclopropyl-5,6,7,8-tetrahydroquinolin-8-yl)-N-((5-(trifluoromethyl)pyridin-2-yl)methyl)cyclopropane-1-carboxamide] | 140 | 7330
2 | C[C@H]1CCC[C@@H](c2ccc(C(F)(F)F)cn2)N1C(=O)C1(c2ccc3c(=O)[nH]nc(CN)c3c2)CC1 (racemic) [Example 24, (±)-4-(aminomethyl)-6-(1-((2S,6S)-2-methyl-6-(5-(trifluoromethyl)pyridin-2-yl)piperidine-1-carbonyl)cyclopropyl)phthalazin-1(2H)-one] | 5260 | > 10000
3 | NCc1n[nH]c(=O)c2ccc(C3(C(=O)N(Cc4ccc(C(F)(F)F)cn4)[C@@H]4CCCc5cccnc54)CC3)cc12 [Example 2A, (R)-1-(4-(aminomethyl)-1-oxo-1,2-dihydrophthalazin-6-yl)-N-(5,6,7,8-tetrahydroquinolin-8-yl)-N-((5-(trifluoromethyl)pyridin-2-yl)methyl)cyclopropane-1-carboxamide] | 98 | 3680
4 | NCc1n[nH]c(=O)c2ccc(C3(C(=O)N(Cc4ccc(-c5ccccc5)cn4)C4CCCc5cccnc54)CC3)cc12 (stereo not drawn) [Example 10, 1-(4-(aminomethyl)-1-oxo-1,2-dihydrophthalazin-6-yl)-N-((5-phenylpyridin-2-yl)methyl)-N-(5,6,7,8-tetrahydroquinolin-8-yl)cyclopropane-1-carboxamide] | 18 | 7230
5 | NCc1n[nH]c(=O)c2ccc(C3(C(=O)N(Cc4ccc(-c5c(F)cccc5F)cn4)C4CCCc5cccc(F)c54)CC3)cc12 (stereo not drawn) [Example 21, 1-(4-(aminomethyl)-1-oxo-1,2-dihydrophthalazin-6-yl)-N-((5-(2,6-difluorophenyl)pyridin-2-yl)methyl)-N-(8-fluoro-1,2,3,4-tetrahydronaphthalen-1-yl)cyclopropane-1-carboxamide] | 102 | 4010
6 | NCc1n[nH]c(=O)c2ccc(C3(C(=O)N(Cc4ccc(-c5c(Cl)cccc5Cl)cn4)[C@@H]4CCCc5cccnc54)CC3)cc12 [Example 4A, (R)-1-(4-(aminomethyl)-1-oxo-1,2-dihydrophthalazin-6-yl)-N-((5-(2,6-dichlorophenyl)pyridin-2-yl)methyl)-N-(5,6,7,8-tetrahydroquinolin-8-yl)cyclopropane-1-carboxamide] | 85 | 2950
7 | NCc1n[nH]c(=O)c2ccc(C3(C(=O)N(Cc4ccc(-c5ccccc5)cn4)[C@@H]4CCCc5cccnc54)CC3)cc12 [Example 11A, (R)-1-(4-(aminomethyl)-1-oxo-1,2-dihydrophthalazin-6-yl)-N-((5-phenylpyridin-2-yl)methyl)-N-(5,6,7,8-tetrahydroquinolin-8-yl)cyclopropane-1-carboxamide] | 57 | 2790
8 | Cc1n[nH]c(C)c1-c1ccc(CN(C(=O)C2(c3ccc4c(=O)[nH]nc(CN)c4c3)CC2)C2CCCc3cccnc32)nc1 (stereo not drawn) [Example 23, 1-(4-(aminomethyl)-1-oxo-1,2-dihydrophthalazin-6-yl)-N-((5-(3,5-dimethyl-1H-pyrazol-4-yl)pyridin-2-yl)methyl)-N-(5,6,7,8-tetrahydroquinolin-8-yl)cyclopropane-1-carboxamide] | 3990 | > 10000
9 | N#Cc1cccc(F)c1-c1ccc(CN(C(=O)C2(c3ccc4c(=O)[nH]nc(CN)c4c3)CC2)C2CCCc3cccnc32)nc1 (stereo not drawn) [Example 28, 1-(4-(aminomethyl)-1-oxo-1,2-dihydrophthalazin-6-yl)-N-((5-(2-cyano-6-fluorophenyl)pyridin-2-yl)methyl)-N-(5,6,7,8-tetrahydroquinolin-8-yl)cyclopropane-1-carboxamide] | 102 | 3210
10 | Cn1nccc1-c1ccc(CN(C(=O)C2(c3ccc4c(=O)[nH]nc(CN)c4c3)CC2)C2CCCc3cccnc32)nc1 (stereo not drawn) [Example 16, 1-(4-(aminomethyl)-1-oxo-1,2-dihydrophthalazin-6-yl)-N-((5-(1-methyl-1H-pyrazol-5-yl)pyridin-2-yl)methyl)-N-(5,6,7,8-tetrahydroquinolin-8-yl)cyclopropane-1-carboxamide] | 699 | > 10000
11 | NCc1n[nH]c(=O)c2ccc(C3(C(=O)N(Cc4ccc(-c5c(F)cccc5F)cn4)[C@H]4CCCc5cccnc54)CC3)cc12 [Example 19B, (S)-1-(4-(aminomethyl)-1-oxo-1,2-dihydrophthalazin-6-yl)-N-((5-(2,6-difluorophenyl)pyridin-2-yl)methyl)-N-(5,6,7,8-tetrahydroquinolin-8-yl)cyclopropane-1-carboxamide] | 848 | > 10000
12 | NCc1n[nH]c(=O)c2ccc(C3(C(=O)N(Cc4ccc(Oc5c(F)cccc5F)cn4)[C@@H]4CCCc5cccnc54)CC3)cc12 [Example 34, (R)-1-(4-(aminomethyl)-1-oxo-1,2-dihydrophthalazin-6-yl)-N-((5-(2,6-difluorophenoxy)pyridin-2-yl)methyl)-N-(5,6,7,8-tetrahydroquinolin-8-yl)cyclopropane-1-carboxamide] | 66 | 3650
13 | NCc1n[nH]c(=O)c2ccc(C3(C(=O)N(Cc4ccc(Oc5ccccc5)cn4)C4CCCc5cccnc54)CC3)cc12 (stereo not drawn) [Example 20, 1-(4-(aminomethyl)-1-oxo-1,2-dihydrophthalazin-6-yl)-N-((5-phenoxypyridin-2-yl)methyl)-N-(5,6,7,8-tetrahydroquinolin-8-yl)cyclopropane-1-carboxamide] | 215 | > 1000
14 | Cc1nc(CN(C(=O)C2(c3ccc4c(=O)[nH]nc(CN)c4c3)CC2)C2CCCc3cccnc32)sc1I (stereo not drawn) [Example 12, 1-(4-(aminomethyl)-1-oxo-1,2-dihydrophthalazin-6-yl)-N-((5-iodo-4-methylthiazol-2-yl)methyl)-N-(5,6,7,8-tetrahydroquinolin-8-yl)cyclopropane-1-carboxamide] | 482 | 6010
15 | COc1ccnc2c1CCCC2N(Cc1ccc(C(F)(F)F)cn1)C(=O)C1(c2ccc3c(=O)[nH]nc(CN)c3c2)CC1 (stereo not drawn) [Example 17, 1-(4-(aminomethyl)-1-oxo-1,2-dihydrophthalazin-6-yl)-N-(4-methoxy-5,6,7,8-tetrahydroquinolin-8-yl)-N-((5-(trifluoromethyl)pyridin-2-yl)methyl)cyclopropane-1-carboxamide] | 253 | > 10000
16 | NCc1n[nH]c(=O)c2ccc(C3(C(=O)N(Cc4ccc(-c5c(Cl)cccc5Cl)cn4)[C@H]4CCCc5cccnc54)CC3)cc12 [Example 4B, (S)-1-(4-(aminomethyl)-1-oxo-1,2-dihydrophthalazin-6-yl)-N-((5-(2,6-dichlorophenyl)pyridin-2-yl)methyl)-N-(5,6,7,8-tetrahydroquinolin-8-yl)cyclopropane-1-carboxamide] | 1540 | 5910
17 | Cc1cc(CN(C(=O)C2(c3ccc4c(=O)[nH]nc(CN)c4c3)CC2)C2CCCc3cccnc32)ncc1C(F)(F)F (stereo not drawn) [Example 7, 1-(4-(aminomethyl)-1-oxo-1,2-dihydrophthalazin-6-yl)-N-((4-methyl-5-(trifluoromethyl)pyridin-2-yl)methyl)-N-(5,6,7,8-tetrahydroquinolin-8-yl)cyclopropane-1-carboxamide] | 285 | > 10000
18 | NCc1n[nH]c(=O)c2ccc(C3(C(=O)N(Cc4ccc(Br)cc4F)C4CCCc5cccnc54)CC3)cc12 (stereo not drawn) [Example 22, 1-(4-(aminomethyl)-1-oxo-1,2-dihydrophthalazin-6-yl)-N-(4-bromo-2-fluorobenzyl)-N-(5,6,7,8-tetrahydroquinolin-8-yl)cyclopropane-1-carboxamide] | 130 | 7370
